Laboratory results published in patent publication US20070004760A1, “Fungicide mixtures for the control of rice pathogens” (priority 2003, published 2007).
Values joined by “and” are separate entries in the source; they are usually repeats but may differ in a detail not shown here. Equal entries are not always repeated. Where two headings read alike, the source gives them in different places.

Legend:
Pyricularia oryzae = type: in vivo; details: individual active compound, rice 'Tai-Nong 67', protective, 6 days, untreated control 60% infection
Cochliobolus miyabeanus = test: Activity against brown spot of rice caused by Cochliobolus miyabeanus, protective application; type: in vivo

| Compound | Efficacy in % of the untreated control (Pyricularia oryzae; 16 ppm in the spray liquor) | Efficacy in % of the untreated control (Cochliobolus miyabeanus; individual active compound, 4 ppm in the spray liquor, rice 'Tai-Nong 67', protective, six days, untreated control 90% infection) | Efficacy in % of the untreated control (Cochliobolus miyabeanus; individual active compound, 16 ppm in the spray liquor, rice 'Tai-Nong 67', protective, six days, untreated control 90% infection) | Efficacy in % of the untreated control (Pyricularia oryzae; 4 ppm in the spray liquor) | Efficacy in % of the untreated control (Cochliobolus miyabeanus; in vivo) |
| --- | --- | --- | --- | --- | --- |
| CC1CCN(c2c(-c3c(F)cccc3Cl)c(Cl)nc3ncnn23)CC1 [Comparison A] | 59% | – | – | – | – |
| C[C@H](Nc1c(-c2c(F)cc(F)cc2F)c(Cl)nc2ncnn12)C(F)(F)F [Comparison B] | 67% | – | – | – | – |
| CC1CCN(c2c(-c3c(F)cc(F)cc3F)c(Cl)nc3ncnn23)CC1 [I, 5-chloro-7-(4-methylpiperidin-1-yl)-6-(2,4,6-trifluorophenyl)-[1,2,4]triazolo[1,5-a]pyrimidine] | 67% | 33% | 33% and 56% | – | – |
| CO/N=C(/C(=O)OC)c1ccccc1CO/N=C(\C)c1cccc(C(F)(F)F)c1 [II (trifloxystrobin), methyl (E)-methoxyimino-{(E)-α-[1-(α,α,α-trifluoro-m-tolyl)ethylideneaminooxy]o-tolyl}acetate] | 2% | – | – | 2% | 0% |
